The values below come from US20240254533A1, “METHODS FOR PRODUCING TRYPTAMINE DERIVATIVES” (OCTARINE BIO APS, priority 2021, published 2024).

The data set can be described thus: Chemical stability of substituted tryptamine derivatives under alkaline, acidic, oxidative and heat stress. To be noted: for Degradation after 24 h exposure (in words): all conditions tested. In kind it is physicochemical. The protocol: Chemical stability of substituted tryptamine derivatives was determined under alkaline, acidic, oxidative and heat stress as follows. 25 mM stock solutions of the target tryptamine molecules were prepared in 100% methanol. 15 μL is mixed with 5 μL of 400 mM HCl solution (final pH=1.1), 400 mM NaOH solution (Final pH=12.5), 12% H2O2 solution (final concentration 3%), or H2O pH 7.0. Acidic, alkaline and oxidative samples were incubated at 30° C. for 24 h while samples in water were incubated at 80° C. for 24 h. A control under ambient conditions was also prepared where 15 μL of the molecule was added to 5 μL H2O pH 7.0 and incubated at 30° C. After 24 h samples were placed on ice and 60 μL of ice-cold 100% methanol is added to each sample. Samples were centrifuged and transferred to HPLC vials for analysis. The remaining concentration was quantified by comparing to authentic analytical standards. Determining the presence of degradation products were determined by comparing with authentic analytical standards.
While the added phosphate group of psilocybin helps protect the molecule from degradation, psilocybin is also relatively unstable, prone to dephosphorylation to psilocin and subsequent degradation. The instability of these molecules hinders formulation and delivery of the compound for therapeutic use. To improve the chemical stability of the active compound psilocin, glycosylation can be used as an effective strategy. […] Degradation of each compound was assessed by measuring the amount of compound remaining after 24 h exposure to each condition.

Where [1] appears, read: pH = 1.1 (HCl), 24 h incubation.
The mark [2] stands for this setting: pH = 12.5 (NaOH), 24 h incubation.

Take `CN(C)CCc1c[nH]c2cccc(O[C@@H]3O[C@H](CO)[C@@H](O)[C@H](O)[C@H]3O)c12` [Psilocin glucoside, psilocin-O-β-D-glucoside]: the “Degradation after 24 h exposure (in words)” value (“Degradation” below) was “practically no signs of degradation”. Further, the “% left after 24 h” value (3% H2O2, 24 h incubation) is reported as 100.0%. Also, the “% left after 24 h” value (4° C., 24 h incubation) is listed as 100.0%. Moreover, the “% left after 24 h” value (30° C., 24 h incubation) stood at 100.0%. The “% left after 24 h” value (80° C., 24 h incubation) is listed as 100.0%. Also, the “% left after 24 h” value (Control) is reported as 100.0%. For the same compound, the “% left after 24 h” value under setting [1] is 100.0%. The “% left after 24 h” value under setting [2] was determined as 100.0%.

Regarding `CN(C)CCc1c[nH]c2cccc(O)c12` [Psilocin], the “Degradation” value is given as “complete degradation”. For the setting “3% H2O2, 24 h incubation”, the “% left after 24 h” value is listed as 0.0%. Further, the “% left after 24 h” value (4° C., 24 h incubation) came to 0.0%. Besides, the “% left after 24 h” value (30° C., 24 h incubation) is reported as 0.0%. Further, where the note is “80° C., 24 h incubation”, the “% left after 24 h” value amounted to 0.0%. The “% left after 24 h” value (Control) is 100.0%. Further, the “% left after 24 h” value under setting [1] worked out at 0.0%. Besides, the “% left after 24 h” value under setting [2] is 0.0%.

Regarding `CN(C)CCc1c[nH]c2cccc(OP(=O)(O)O)c12` [Psilocybin], the “Degradation” value is “much less degradation compared to psilocin”.
